{"source": "patent US20060084657A1", "about": "“Piperazine derivative” (priority 2001, published 2006)", "biological_target": "T1, human MC4 receptor (Homo sapiens, UniProt P32245)", "T1 construct": "purchased BioLinks K.K; host or cells: HEK-293 cell membranes", "T1 sequence (P32245 whole entry)": "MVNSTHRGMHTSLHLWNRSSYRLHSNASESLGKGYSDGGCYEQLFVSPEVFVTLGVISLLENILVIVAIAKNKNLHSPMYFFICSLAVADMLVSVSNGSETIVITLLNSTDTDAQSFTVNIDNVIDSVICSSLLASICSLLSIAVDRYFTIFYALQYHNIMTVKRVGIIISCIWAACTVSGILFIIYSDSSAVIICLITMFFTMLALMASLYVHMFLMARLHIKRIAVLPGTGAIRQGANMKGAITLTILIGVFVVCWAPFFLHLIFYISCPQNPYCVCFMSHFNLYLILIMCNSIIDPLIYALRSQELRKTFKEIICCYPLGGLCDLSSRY", "test": "Test for binding to MC4 receptor", "conditions": "HEK-293 cell membranes expressing the human MC4 receptor; [125I]Nle4-D-Phe7-α-MSH 0.2 nM; 25° C. for 120 minutes", "experimental": "The test for binding to MC4 receptor was carried out according to the method as described in Pharmacology & Toxicology, 79, 161-165, 1996. HEK-293 cell membranes expressing the human MC4 receptor were purchased from BioLinks K.K. The cell membranes were homogenized in a 50 mM Tris-hydrochloric buffer (pH 7.4) containing 2 mM ethylenediaminetetraacetic acid, 10 mM calcium chloride and 100 μM phenymethylsulfonyl fluoride. The homogenate was centrifuged at 48,000×g at 4° C. for 20 minutes. The precipitate obtained by centrifugation was re-homogenized in the same buffer, and then the homogenate was centrifuged at 48,000×g at 4° C. for 20 minutes. This manipulation was repeated twice. The precipitates were suspended in a 50 mM Tris-hydrochloric acid buffer (pH 7.4) containing 2 mM ethylenediaminetetraacetic acid, 10 mM calcium chloride, 100 μM phenymethylsulfonyl fluoride and 0.1% bovine serum albumin so as to provide a protein concentration of 100 μg/ml. The suspension was used for the binding test as a crude membrane specimen. The crude membrane specimen (0.25 ml, 25 μg protein) was allowed to react with [^125I]Nle^4-D-Phe^7-α-MSH (final concentration of 0.2 nM) at 25° C. for 120 minutes. […] Radioactivity on the filter papers was measured using a γ-counter. […] IC50 value was calculated from inhibition curve at concentrations of from 10^−8 to 10^−5."}
{"smiles": "CC(C)N1CCN(C(CN2CCN(CCCc3sc(-c4ccccc4)nc3-c3ccccc3)CC2)c2ccc(F)cc2)CC1", "note": "(stereo not shown) [Compound 86]", "values": [{"measurement": "IC50", "result": 162, "unit": "nM"}]}
